System: RAW264.7
Test: Inhibition of LPS-stimulated nitric oxide production in […] RAW264.7 cells after 24 hrs by Griess assay
Format: functional, cell-based
Details: Mus musculus; for IC50: RAW264.7, 24 h

IC50	Compound	inhibition
14.7 µM	CC(C)CC(=O)OCC1=CO[C@H](OC(=O)CC(C)C)[C@H]2C1(O)C[C@@H](O)[C@]2(O)COC(=O)CC(C)C (some centres undefined)	Dose-dependent effect
17.8 µM	COc1cc([C@@H](O)[C@@H](COC(=O)CC(C)C)Oc2c(O)cc(/C=C/COC(=O)CC(C)C)cc2OC)cc(OC)c1O	Dose-dependent effect
17.1 µM	CC(C)CC(=O)OCC1=COC=C2C1=CC(=O)[C@]2(O)COC(=O)CC(C)C	Dose-dependent effect
> 50 µM	CC(C)CC(=O)OCC1=CO[C@@H](OC(=O)CC(C)C)[C@H]2C1=C[C@H](O)[C@]2(O)CO	–
26 µM	CC(C)CC(=O)OCC1=CO[C@H](OC(=O)CC(C)C)[C@@H]2[C@@](O)(COC(=O)CC(C)C)[C@H](O)C[C@]12O	–
27.6 µM	CC(C)CC(=O)OCC1=COC=C2C1=CC(=O)[C@]2(O)CCl	–

Source: ChEMBL document CHEMBL4145603, “Iridoids from the Roots of Patrinia scabra and Their Inhibitory Potential on LPS-Induced Nitric Oxide Production” (J Nat Prod, 2018)
